# Test results reported in patent US10308607B2, “Fucosidase inhibitors” (HORIZON ORPHAN LLC, priority 2015, dated 2019).
# Values joined by “and” are separate entries in the source; they are usually repeats but may differ in a detail not shown here. Identical values can stand only once.
# Columns and labels:
# rhFUCA1 = rhFUCA1 (Homo sapiens (Human), UniProt P04066); assay: In vitro fucosidase inhibition (4MU-FUC fluorescence); type: biochemical; settings: 1 ng/mL rhFUCA1, 640 nM 4MU-FUC, pH 4.5, 37° C., 30 minutes
# Protocol: Fucosidase inhibition was assessed by preparing a reaction mixture of 50 mM phosphate-citrate pH 4.5, 5 mM MgCl2, 640 nM 4-methylumbelliferyl-alpha-L-fucopyranoside (4MU-FUC), 1 ng/mL rhFUCA1 (R&D Systems), and compound II, III, or IV:
# Reactions (100 μL) were incubated at 37° C. for 30 minutes and then quenched with the same volume of 600 mM citrate-carbonate buffer, pH 9. Fluorescence was measured by excitation at 360 nm and emission at 450 nm.
# HepG2 cells = assay: Metabolic labeling with tagged-fucose, flow cytometry; type: cell-based, human
# Protocol: Perturbations in glycoprotein metabolism were assayed by growing HepG2 cells without fucosidase inhibitors, or with compound II, III, or IV (see Example 2) for 24 hours, and then adding (3S,4R,5R,6S)-6-ethynyltetrahydro-2H-pyran-2,3,4,5-tetrayl tetra acetate, a per-acetylated analog of fucose containing an alkyne moiety in place of the 5′-methyl group (Click-iT™ Fucose Alkyne, Molecular Probes, Eugene, Oreg.) for an additional 48 hours. Cells were fixed, permeabilized, washed, and stained with Alexa Fluor 488 Azide to orthogonally label glycoproteins incorporating the fucose analog. Cells were then analyzed for fluorescence using a Guava 6HT-2L flow cytometer (ThermoFisher).
# [1] = Pharmacokinetics in mouse plasma; type: in vivo; settings: for Conc. of cmpd II: individual animal
# Protocol: To assess the pharmacokinetics of compound II (see Example 2) in mouse plasma, compound II was administered intravenously at a dosage of 1 mg/kg. Compound II concentration was measured at various time points up to 24 hours after administration, and the results are provided in Table 5.
# [2] = system: human hepatocarcinoma cell line HepG2; assay: Orthotopic model of human hepatocellular carcinoma; type: in vivo, nude mice
# Protocol: To assess the compounds in vivo, an orthotopic model of human hepatocellular carcinoma was used. The orthotopic tumor model was generated by implanting human hepatocarcinoma cell line HepG2 into nude mice and allowing the tumor cells to grow in vivo.
# The efficacy study was carried out using 10 mice per group and two dosage regimens. Compound II (see Example 2) was administered by oral gavage (po) at a dosage of 175 mg/kg once daily for 3 weeks (QDx21) or at a dosage of 87.5 mg/kg twice daily for 3 weeks (BIDx21). Vehicle (100 μL) was administered to control animals.
# [3] = 87.5 mg/kg po twice daily (BIDx21), Day 0
# [4] = 87.5 mg/kg po twice daily (BIDx21), Day 2
# [5] = 87.5 mg/kg po twice daily (BIDx21), Day 5
# [6] = 87.5 mg/kg po twice daily (BIDx21), Day 9
# [7] = 87.5 mg/kg po twice daily (BIDx21), Day 12
# [8] = 87.5 mg/kg po twice daily (BIDx21), Day 16
# [9] = 87.5 mg/kg po twice daily (BIDx21), Day 20
# [10] = 175 mg/kg po once daily (QDx21), Day 0
# [11] = 175 mg/kg po once daily (QDx21), Day 2
# [12] = 175 mg/kg po once daily (QDx21), Day 5
# [13] = 175 mg/kg po once daily (QDx21), Day 9
# [14] = 175 mg/kg po once daily (QDx21), Day 12
# [15] = 175 mg/kg po once daily (QDx21), Day 16
# [16] = 175 mg/kg po once daily (QDx21), Day 20
# rhFUCA1, sequence (P04066 32-466): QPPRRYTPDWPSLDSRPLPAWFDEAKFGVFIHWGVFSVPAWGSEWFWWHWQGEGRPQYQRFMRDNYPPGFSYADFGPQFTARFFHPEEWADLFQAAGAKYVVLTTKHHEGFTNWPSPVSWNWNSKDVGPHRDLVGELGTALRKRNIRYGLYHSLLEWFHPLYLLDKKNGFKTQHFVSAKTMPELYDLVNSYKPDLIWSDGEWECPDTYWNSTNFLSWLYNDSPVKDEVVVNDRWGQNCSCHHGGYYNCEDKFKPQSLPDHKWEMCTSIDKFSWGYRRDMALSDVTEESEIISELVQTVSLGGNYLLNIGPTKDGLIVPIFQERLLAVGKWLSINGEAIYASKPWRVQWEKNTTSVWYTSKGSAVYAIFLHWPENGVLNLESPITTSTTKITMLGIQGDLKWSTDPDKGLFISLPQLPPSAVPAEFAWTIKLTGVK
smiles,measurement,setting,value
C[C@@H]1N[C@H](CNC(=O)c2cccc3c2C(=O)c2ccccc2-3)[C@@H](O)[C@H](O)[C@@H]1O [Compound II],IC50,rhFUCA1,16 nM
same,Mean Green Fluorescence (GRN-HLog),"HepG2 cells; HepG2, 24 hours compound then 48 hours fucose alkyne, Alexa Fluor 488 Azide",8433
same,Fold over vehicle,"HepG2 cells; mean green fluorescence, HepG2",2.98
same,Conc. of cmpd II,"[1]; IV 1 mg/kg qdx1, 5 min",247 ng/mL and 313 ng/mL and 259 ng/mL
same,Mean conc. of cmpd II,"[1]; IV 1 mg/kg qdx1, 5 min",273 ng/mL
same,Conc. of cmpd II,"[1]; IV 1 mg/kg qdx1, 1 h",28.7 ng/mL and 31.8 ng/mL and 34.3 ng/mL
same,Mean conc. of cmpd II,"[1]; IV 1 mg/kg qdx1, 1 h",31.6 ng/mL
same,Conc. of cmpd II,"[1]; IV 1 mg/kg qdx1, 2 h",8.58 ng/mL and 5.83 ng/mL and 9.10 ng/mL
same,Mean conc. of cmpd II,"[1]; IV 1 mg/kg qdx1, 2 h",7.84 ng/mL
same,Conc. of cmpd II,"[1]; IV 1 mg/kg qdx1, 4 h",2.76 ng/mL and 1.86 ng/mL and 3.36 ng/mL
same,Mean conc. of cmpd II,"[1]; IV 1 mg/kg qdx1, 4 h",2.66 ng/mL
same,Conc. of cmpd II,"[1]; IV 1 mg/kg qdx1, 8 h",1.56 ng/mL and 1.17 ng/mL and 1.57 ng/mL
same,Mean conc. of cmpd II,"[1]; IV 1 mg/kg qdx1, 8 h",1.43 ng/mL
same,Conc. of cmpd II,"[1]; IV 1 mg/kg qdx1, 12 h",1.04 ng/mL and 1.06 ng/mL and 2.04 ng/mL
same,Mean conc. of cmpd II,"[1]; IV 1 mg/kg qdx1, 12 h",1.38 ng/mL
same,Conc. of cmpd II,"[1]; IV 1 mg/kg qdx1, 24 h",BQL (Below Quantitation limit <1.0 ng/m1)
same,Body Weight,[2]; [3],22.45 g
same,Tumor Volume,[2]; [3],212 mm^3
same,Body Weight,[2]; [4],22.05 g
same,Tumor Volume,[2]; [4],224 mm^3
same,Body Weight,[2]; [5],21.93 g
same,Tumor Volume,[2]; [5],227 mm^3
same,Body Weight,[2]; [6],21.58 g
same,Tumor Volume,[2]; [6],247 mm^3
same,Body Weight,[2]; [7],21.51 g
same,Tumor Volume,[2]; [7],270 mm^3
same,Body Weight,[2]; [8],20.39 g
same,Tumor Volume,[2]; [8],326 mm^3
same,Body Weight,[2]; [9],20.86 g
same,Tumor Volume,[2]; [9],320 mm^3
same,Body Weight,[2]; [10],22.93 g
same,Tumor Volume,[2]; [10],211 mm^3
same,Body Weight,[2]; [11],22.94 g
same,Tumor Volume,[2]; [11],238 mm^3
same,Body Weight,[2]; [12],22.28 g
same,Tumor Volume,[2]; [12],277 mm^3
same,Body Weight,[2]; [13],22.1 g
same,Tumor Volume,[2]; [13],320 mm^3
same,Body Weight,[2]; [14],22.26 g
same,Tumor Volume,[2]; [14],348 mm^3
same,Body Weight,[2]; [15],20.58 g
same,Tumor Volume,[2]; [15],364 mm^3
same,Body Weight,[2]; [16],19.98 g
same,Tumor Volume,[2]; [16],416 mm^3
